Test [1] relates to Type I MDCK cells. Nature of the test: Proliferation of MDCK cells (cell counting). The format is cell-based, canine. Here is the method:
(§1) For cyst growth and cell proliferation experiments, we used Type I Madin-Darby canine kidney (MDCK) cells. We chose Type I MDCK cells because they form cysts when grown in collagen gels in the presence of cAMP agonists (26) and because they express the CFTR Cl^− channel (27). MDCK cells were cultured in MDCK media (a 1:1 mixture of Dulbecco's Modified Eagle Medium (DMEM) and Ham's F-12 nutrient medium supplemented with 100 U ml^−1 penicillin, and 100 μg ml^−1 streptomycin and either 10% fetal bovine serum (FBS; cyst growth) or 5% FBS and 1% insulin-transferrin-selenium-X (ITS-X) supplement (cell proliferation); all from Life Technologies Ltd, Paisley, UK) at 37° C. in a humidified atmosphere of 5% CO2.
To test the effect of CFTR modulators on the proliferation of MDCK cells, we used Type I MDCK cells grown in media containing 5% FBS and 1% ITS-X supplement. On day −1, MDCK cells were seeded at 7.5×10^4 cells ml^−1 in 35 mm dishes containing MDCK media with 1% FBS and 1% ITS-X supplement. On day 0, the concentration of FBS was reduced further to 0.01% and CFTR modulators added to the MDCK media. MDCK media containing CFTR modulators was changed every 2 days for a total period of 6 days. To determine the number of cells per 35 mm dish, Type I MDCK cells were harvested using trypsin (0.25% wt/vol), centrifuged at 1200 rpm for 5 min and resuspended in 1 ml of MDCK media before counting using a haemocytometer.

Test [2] has as its target T1, wild-type human CFTR (Homo sapiens, UniProt P13569).
T1 construct: expressed in transfected cells
Nature of the test: CFTR Cl− channels recorded in excised inside-out membrane patches from C127 cells (patch-clamp). The format is biochemical. Here is the method: For electrophysiological experiments, we used mouse mammary epithelial cells (C127 cells) stably expressing wild-type human CFTR (12). C127 cells expressing wild-type CFTR were cultured as previously described (10). Cells were seeded onto glass coverslips and used within 48 h.
The established sign convention was used throughout; currents produced by positive charge moving from intra- to extracellular solutions (anions moving in the opposite direction) are shown as positive currents.
[…] […] All experiments were conducted at 37° C.
PKA was maintained in the intracellular solution for the duration of experiments. Unless otherwise stated, voltage was −50 mV.
In time course studies, each point is the average current for a 4 s period with data points collected continuously; no data were collected while solutions were changed. Average current (I) for a specific intervention was determined as the average of all the data points collected during the intervention. […] Mean data were fitted to a linear form of equation (1) using linear least-squares regression to yield Ki and n values.
To measure single-channel current amplitude (i), Gaussian distributions were fitted to current amplitude histograms. For open probability (Po) and kinetic analyses, lists of open and closed times were created using a half-amplitude crossing criterion for event detection. Transitions <1 ms in duration were excluded from the analyses. Po was calculated using the equation: Po=(T1+T2+ . . . +TN)/(NTtot), (2) where N is the number of channels; Ttot is the total time analysed, and T1 is the time that one or more channels are open, T2 is the time two or more channels are open and so on. Only membrane patches that contained a single active channel were used for single-channel kinetic analyses.
To investigate whether inhibition of CFTR by fluorescein derivatives was voltage dependent, we used voltage ramp protocols. Macroscopic current-voltage (I-V) relationships were obtained in the absence and presence of fluorescein derivatives by averaging currents generated by 15-30 ramps of voltage each of 2 s duration; holding voltage was −50 mV. Basal currents recorded in the absence of PKA and ATP were subtracted from those recorded in the absence and presence of fluorescein derivatives to determine the effect of these agents on CFTR Cl^− currents.
For orientation: Patch clamp records ionic current or voltage across a cell membrane.

Test [3] deals with Type I Madin-Darby canine kidney (MDCK) cells. The test is described as follows: Cyst growth of MDCK cells in collagen gels with cAMP agonists. As to conditions: for cyst volume: day 21 vs day 12; for size of cysts (phase-contrast): days 12 to 21. It is filed as cell-based. Here is the method:
as §1
To grow cysts, MDCK cells were cultured in collagen gels using a modification of the method of Grantham et al. (26). Cells were trypsinized with 0.25% (wt/vol) trypsin for 30 minutes at 37° C., diluted with MDCK media containing 10% FBS to form a suspension of between 1-3×10^4 cells ml^−1, and aliquoted into individual wells of a 24-well plate (0.1 ml per well). Each well contained 0.4 ml of ice-cold Vitrogen (3.0 mg ml^−1 collagen; Cohesion Technologies Inc., Palo Alto, USA) supplemented with 10% (vol/vol) 10× minimum essential medium, 10 mM N-[2-hydroxyethyl]piperazine-N′-[2-ethanesulphonic acid] (Hepes), 27 mM NaHCO3, 100 U ml^−1 penicillin, and 100 μg ml^−1 streptomycin, and adjusted to pH 7.4 with NaOH. The 24-well plate was gently agitated to distribute cells throughout the Vitrogen and incubated in a water bath at 37° C. for 90 minutes to promote gelation of the Vitrogen.
After gelation, 1.5 ml MDCK media containing 10% FBS was added to each well of the 24-well plate. To promote cyst growth, we added cAMP agonists (forskolin (10 μM), 3-isobutyl-1-methylxanthine (IBMX; 100 μM), and 8-(4-chlorophenylthio) adenosine 3′:5′-cyclic monophosphate (CPT-cAMP; 500 μM)) to the MDCK media. Plates were maintained at 37° C. in a humidified atmosphere of 5% CO2 and the MDCK media containing cAMP agonists changed every three days.
Twelve days after seeding collagen gels with MDCK cells, cysts were readily detected at ×1000 magnification using an inverted microscope with phase contrast optics (Leica, model DMIL, Milton Keynes, UK). To test the effect of CFTR modulators on cyst growth, drugs were added to MDCK media in the continued presence of cAMP agonists. MDCK media containing cAMP agonists and CFTR modulators was changed every 3 days for a total period of 9 days. Photographs of individual cysts were taken before the addition of CFTR modulators and at three day intervals over the duration of the experiment. To identify individual cysts, each cyst was assigned a unique reference number using a grid placed below the 24-well plate.
The diameter of cysts was measured directly from photographs of cysts using images that had been magnified by identical amounts. By assuming that cysts are spherical in shape, we calculated cyst volume ( 4/3·π·r^3).

T1 sequence (P13569 whole entry): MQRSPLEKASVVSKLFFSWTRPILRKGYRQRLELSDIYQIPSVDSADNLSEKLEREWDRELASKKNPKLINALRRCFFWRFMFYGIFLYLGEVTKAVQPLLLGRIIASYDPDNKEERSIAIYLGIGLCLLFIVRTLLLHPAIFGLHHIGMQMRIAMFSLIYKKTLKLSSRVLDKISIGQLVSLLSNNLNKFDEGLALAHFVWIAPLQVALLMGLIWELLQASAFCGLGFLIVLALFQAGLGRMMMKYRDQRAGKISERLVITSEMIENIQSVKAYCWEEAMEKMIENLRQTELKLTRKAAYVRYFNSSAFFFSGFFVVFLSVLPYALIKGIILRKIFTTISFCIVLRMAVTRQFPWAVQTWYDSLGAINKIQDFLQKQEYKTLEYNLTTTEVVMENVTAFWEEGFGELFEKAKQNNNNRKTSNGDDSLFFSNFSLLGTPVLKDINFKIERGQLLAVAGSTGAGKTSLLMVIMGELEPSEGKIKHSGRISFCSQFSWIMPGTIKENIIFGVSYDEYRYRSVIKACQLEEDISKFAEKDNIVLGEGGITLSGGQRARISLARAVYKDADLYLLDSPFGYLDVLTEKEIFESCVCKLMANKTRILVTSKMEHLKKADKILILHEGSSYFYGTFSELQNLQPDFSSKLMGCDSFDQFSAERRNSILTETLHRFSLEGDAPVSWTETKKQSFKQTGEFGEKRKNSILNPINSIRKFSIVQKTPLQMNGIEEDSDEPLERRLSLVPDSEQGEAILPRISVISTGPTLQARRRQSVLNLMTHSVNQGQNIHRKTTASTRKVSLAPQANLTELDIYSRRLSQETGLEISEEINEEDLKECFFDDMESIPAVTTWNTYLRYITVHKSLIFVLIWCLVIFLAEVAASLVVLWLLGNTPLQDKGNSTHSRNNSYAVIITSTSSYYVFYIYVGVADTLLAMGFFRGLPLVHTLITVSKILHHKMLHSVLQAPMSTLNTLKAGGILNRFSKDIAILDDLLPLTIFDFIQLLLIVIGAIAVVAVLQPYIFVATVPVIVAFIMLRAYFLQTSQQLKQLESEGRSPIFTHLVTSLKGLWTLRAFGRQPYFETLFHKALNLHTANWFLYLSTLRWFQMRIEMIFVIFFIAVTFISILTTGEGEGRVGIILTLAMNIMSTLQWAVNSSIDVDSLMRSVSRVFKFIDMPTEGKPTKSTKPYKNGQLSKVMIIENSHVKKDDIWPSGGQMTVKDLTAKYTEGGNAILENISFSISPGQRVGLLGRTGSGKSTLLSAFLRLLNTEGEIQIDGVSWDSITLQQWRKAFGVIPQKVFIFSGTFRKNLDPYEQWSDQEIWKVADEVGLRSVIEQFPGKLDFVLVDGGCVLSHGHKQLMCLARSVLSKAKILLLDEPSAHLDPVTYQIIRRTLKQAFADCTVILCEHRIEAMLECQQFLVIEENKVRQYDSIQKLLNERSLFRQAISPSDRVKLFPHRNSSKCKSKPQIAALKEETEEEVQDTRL

As to `O=[N+]([O-])c1ccc(C=Cc2ccc([N+](=O)[O-])cc2S(=O)(=O)O)c(S(=O)(=O)O)c1` [DIDS, 4,4′-dinitrostilbene-2,2′-disulphonic acid], the “cell growth (number of cells), day 0 to 6” value (“cell growth … to 6” for short) in test [1] (200 μM) is recorded as “exception”. In test [2] (200 μM, added to the intracellular side), the “effect on activity of CFTR” value is given as “potently inhibited”. In test [3] (200 μM, P>0.5), the cyst volume entry is recorded as “exception”. In addition, the “size of cysts (phase-contrast)” value in test [3] (200 μM) was “without effect on cyst growth”.

With `O=C(O)c1cc([N+](=O)[O-])ccc1NCCCc1ccccc1` [NPPB, 5-nitro-2-(3-phenylpropylamino)-benzoic acid], in test [1], the “inhibition of cell growth in the presence of cAMP agonists” value is recorded as “unaffected by cAMP agonists” and the “rank order of prevention of cell growth” value is reported as “ouabain (1 μM)=phloxine B (40 μM)=genistein (100 μM)=NPPB (400 μM)>glibenclamide (100 μM)”. In addition, in test [1] (400 μM), the “cell growth … to 6” value is listed as “prevented cell growth”. For the same compound, the “rank order of decrease of cyst volume” value in test [3] is “glibenclamide (100 μM)≧ouabain (1 μM)≧NPPB (400 μM)≧genistein (100 μM)>bumetanide”. Also, in test [3] (400 μM), the cyst volume entry is recorded as “decreased cyst volume” and the “size of cysts (phase-contrast)” value is reported as “visible decrease in the size of cysts”.

As for `O=C1OC2(c3cc(I)c(O)c(I)c3Oc3c2cc(I)c(O)c3I)c2c(Cl)c(Cl)c(Cl)c(Cl)c21` [bengal rose B], the “cell growth … to 6” value in test [1] (5 μM) is on record as “inhibited the proliferation”. Besides, in test [2], the “potency of CFTR inhibition compared with glibenclamide” value was “potency greater than or equal to that of glibenclamide” and the “reversibility of CFTR inhibition” value is given as “irreversible”. The “single-channel activity (i and/or Po)” value in test [2] (10 μM) was “never able to resolve discrete channel openings”. Further, in test [2] (concentration-response, FIG. 3), the “rank order of potency for CFTR inhibition” value was “bengal rose B>phloxine B>eosin Y≧tetrachlorofluorescein>>fluorescein” and the “stimulation of CFTR channel activity” value is “stimulated channel activity”.

Consider `CCCCNc1cc(C(=O)O)cc(S(N)(=O)=O)c1Oc1ccccc1` [bumetanide], for which the “cell growth … to 6” value in test [1] (100 μM) is reported as “exception”. Moreover, the “rank order of decrease of cyst volume” value in test [3] is listed as “glibenclamide (100 μM)≧ouabain (1 μM)≧NPPB (400 μM)≧genistein (100 μM)>bumetanide”. Further, the cyst volume entry in test [3] (100 μM) is given as “decreased cyst volume”.

For `O=C1OC2(c3ccc(O)cc3Oc3cc(O)ccc32)c2ccccc21` [fluorescein], the “rank order of potency for CFTR inhibition” value in test [2] (concentration-response, FIG. 3) is given as “bengal rose B>phloxine B>eosin Y≧tetrachlorofluorescein>>fluorescein”.

`O=c1c(-c2ccc(O)cc2)coc2cc(O)cc(O)c12` [genistein]: in test [1], the “inhibition of cell growth in the presence of cAMP agonists” value is given as “unaffected by cAMP agonists” and the “rank order of prevention of cell growth” value is “ouabain (1 μM)=phloxine B (40 μM)=genistein (100 μM)=NPPB (400 μM)>glibenclamide (100 μM)”. Further, the “cell growth … to 6” value in test [1] (100 μM) was “prevented cell growth”. Besides, the “rank order of decrease of cyst volume” value in test [3] is “glibenclamide (100 μM)≧ouabain (1 μM)≧NPPB (400 μM)≧genistein (100 μM)>bumetanide”. The cyst volume entry in test [3] (100 μM) was “decreased cyst volume”.

Consider `O=C(O)c1c(Cl)c(Cl)c(Cl)c(Cl)c1-c1c2ccc(=O)cc-2oc2cc(O)ccc12` [tetrachlorofluorescein], for which the “cell growth … to 6” value in test [1] (200 μM) was “inhibited the proliferation”. Moreover, in test [2], the “potency of CFTR inhibition compared with glibenclamide” value is given as “less potently than glibenclamide” and the “reversibility of CFTR inhibition” value is listed as “partially reversible”. Further, in test [2] (100 μM), the “open probability (Po)” value is “decreasing” and the “single-channel current amplitude (i)” value was “decreasing”. In test [2] (100 μM, symmetrical 147 mM Cl−), the “channel block at positive voltages” value is “relieved” and the “effect on CFTR Cl− currents at negative voltages” value is listed as “decreased CFTR Cl^− currents”. In test [2] (ATP 0.3 mM, PKA 75 nM, −50 mV), the “n (slope factor, Hill coefficient) of CFTR inhibition” value was found to be 0.7. In addition, the Ki in test [2] (ATP 0.3 mM, PKA 75 nM, −50 mV, 37° C., drug in intracellular solution, read-out: Ki (drug concentration causing half-maximal inhibition of CFTR Cl− current, Hill plot)) was determined as 58 µM. In addition, in test [2] (concentration-response, FIG. 3), the “rank order of potency for CFTR inhibition” value is “bengal rose B>phloxine B>eosin Y≧tetrachlorofluorescein>>fluorescein”. Moreover, the “voltage-dependence of CFTR inhibition” value in test [2] (voltage ramp ±100 mV, symmetrical 147 mM Cl−, ATP 1 mM) was “voltage-dependent”.

Values taken from US7304090B2, “Inhibition of the cystic fibrosis transmembrane conductance regulator chloride channel” (The University of Bristol, priority 2000, dated 2007).
